Experiments:
[1] = in vivo; choline salt compared with the free acid
solubility in water = assay type: physicochemical

| solubility in water (solubility in water) | SMILES | bioavailability [1] | oral exposure [1] |
| --- | --- | --- | --- |
|  | CC1=NN(c2ccc(C)c(C)c2)C(=O)/C1=N\Nc1cccc(-c2cccc(-c3nnn[nH]3)c2)c1O [Compound A, 2-(3,4-dimethylphenyl)-4-{[2-hydroxy-3′-(1H-tetrazol-5-yl)biphenyl-3-yl]-hydrazono}-5-methyl-2,4-dihydropyrazol-3-one choline] | enhanced | enhanced |
| poorly soluble | CC1=NN(c2ccc(C)c(C)c2)C(=O)C1=NNc1cccc(-c2cccc(-c3nnn[nH]3)c2)c1O [free acid, 2-(3,4-dimethylphenyl)-4-{[2-hydroxy-3′-(1H-tetrazol-5-yl)biphenyl-3-yl]-hydrazono}-5-methyl-2,4-dihydropyrazol-3-one] |  |  |

Reference: patent publication US7666857B2, “2-(3,4-dimethylphenyl)-4-{[2-hydroxy-3′-(1h-tetrazol-5-yl)biphenyl-3-yl]-hydrazono}-5-methyl-2,4-dihydropyrazol-3-one choline” (SmithKline Beecham Corp., priority 2004, dated 2010)
